Assay results taken from patent US20060063702A1, “Neuromedin U 2 receptor agonists and uses thereof” (priority 2004, published 2006).
“Also recorded” adds a separate entry of the source. Where no end group is shown, it is not given here.

Experiments:
human NMU-2R [1] = target: T1, human NMU-2R (Homo sapiens, UniProt Q9GZQ4); test: NMU-2R reporter gene (luciferase) assay in HEK-293/NMU-2R/3MCS/Luci cells; type: cell-based; details: for activation of NMU-2R, expression of reporter gene luciferase: in the presence of forskolin 5 μmol/L
T1 construct: expressed in transfected cells
Description: Establishment of stable cell line: HEK-293 cells were maintained in DMEM with 10% FBS (Gibco) and 1% non-essential amino acid at 37° C. […] Twenty-four hours after transfection, cell culture medium was replaced with fresh medium containing G418 at final concentration of 800 mg/L. Stable cell line was generated using limited dilution based on the luciferase activity in the presence of NmU and forskolin (5 μmol/L). The stable cell line was named HEK-293/NMU-2R/3MCS/Luci cells. Luciferase assay and screening for NMU-2R agonists: The luciferase activity was measured according to the protocol from Promega. Briefly, 100 μL of HEK-293/NMU-2R/3MCS/Luci cells at 4×10^4 cells/mL were added into each well of white 96 -well plate (flat, clear bottom, Costar). The cells were maintained in DMEM containing 10% FBS (Gibco) and 1% non-essential amino acid, and incubated at 37° C., 5% CO2 overnight. […] Finally, 110 μL of luciferase substrate Bright GloTM (Promega) was added into each well. Luciferase activity was measured using […] (Molecular Device).

other GPCRs = test: Specificity assay in more than twenty other GPCR stable cell lines; type: cell-based
Description: Several stable cell lines were generated to examine the specificity of the compounds. First, the activity of the compounds in cell line expressing the reporter gene alone were tested. Since the reporter gene cell line was not transfected with NMU-2R expression vector, compounds that can activate the reporter gene expression in this cell line were not NMU-2R agonists. In addition, the compounds in cell lines expressing other GPCRs were tested. More than twenty different GPCR stable cell lines were generated for the specificity assay.

NMU-1R = target: T2, NMU-1R (Homo sapiens, UniProt Q9HB89); test: Activity for NMU-1R; type: cell-based
T2 sequence (Q9HB89 1-426): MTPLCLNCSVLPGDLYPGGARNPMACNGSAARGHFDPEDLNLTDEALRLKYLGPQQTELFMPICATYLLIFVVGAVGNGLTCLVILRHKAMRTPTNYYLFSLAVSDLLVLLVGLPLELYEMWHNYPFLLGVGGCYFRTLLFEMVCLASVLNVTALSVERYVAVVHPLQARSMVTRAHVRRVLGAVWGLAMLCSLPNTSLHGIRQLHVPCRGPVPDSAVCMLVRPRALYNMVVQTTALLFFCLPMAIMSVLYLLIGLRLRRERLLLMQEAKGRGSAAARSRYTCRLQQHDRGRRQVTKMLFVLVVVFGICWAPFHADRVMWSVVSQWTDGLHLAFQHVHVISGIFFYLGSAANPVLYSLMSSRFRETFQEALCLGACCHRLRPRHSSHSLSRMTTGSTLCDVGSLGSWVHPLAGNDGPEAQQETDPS

human NMU-2R [2] = target: T1, human NMU-2R; details: literature refs 5-7, 15-20; cited from earlier work

T1 sequence (Q9GZQ4 whole entry): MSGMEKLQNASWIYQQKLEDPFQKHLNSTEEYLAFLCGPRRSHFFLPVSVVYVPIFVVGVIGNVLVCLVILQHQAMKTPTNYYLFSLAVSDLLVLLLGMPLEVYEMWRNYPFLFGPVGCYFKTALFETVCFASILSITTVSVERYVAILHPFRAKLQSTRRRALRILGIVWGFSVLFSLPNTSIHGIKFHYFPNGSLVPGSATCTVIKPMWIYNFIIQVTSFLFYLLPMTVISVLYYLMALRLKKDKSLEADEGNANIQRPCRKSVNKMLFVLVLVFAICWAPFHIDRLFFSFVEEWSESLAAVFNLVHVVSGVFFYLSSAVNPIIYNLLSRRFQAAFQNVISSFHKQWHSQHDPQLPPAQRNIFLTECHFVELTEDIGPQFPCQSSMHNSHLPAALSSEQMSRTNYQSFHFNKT

| Compound | activation of NMU-2R, expression of reporter gene luciferase (human NMU-2R [1]) | effect on other GPCRs (other GPCRs) | activity for NMU-1R (NMU-1R) | induction of reporter gene expression (human NMU-2R [1]; NmU alone, without forskolin) | potency of receptor activation (human NMU-2R [2]) |
| --- | --- | --- | --- | --- | --- |
| COc1ccc([C@@H]2CC(=O)c3c(O)cc(O[C@@H]4O[C@H](CO[C@@H]5O[C@@H](C)[C@H](O)[C@@H](O)[C@H]5O)[C@@H](O)[C@H](O)[C@H]4O)cc3O2)cc1O [Hesperidin] | potential NMU-2R agonists | – | – | – | – |
| COc1ccc(-c2oc3c(CC=C(C)C)c(O[C@@H]4O[C@H](CO)[C@@H](O)[C@H](O)[C@H]4O)cc(O)c3c(=O)c2O[C@@H]2O[C@@H](C)[C@H](O)[C@@H](O)[C@H]2O)cc1 [Icariin] | potential NMU-2R agonists | – | – | – | – |
| C[C@@H]1O[C@@H](OC[C@H]2O[C@@H](Oc3c(-c4ccc(O)c(O)c4)oc4cc(O)cc(O)c4c3=O)[C@H](O)[C@@H](O)[C@@H]2O)[C@H](O)[C@H](O)[C@H]1O [Rutin] | – | no activity | no activity | – | – |
| Neuromedin U (FRVDEEFQSPFASQSRGYFLFRPRN; ends and bridges not checked; UniProt P48645 142-166, looked up) [NmU, peptide hormone, natural ligand for NMU-2R] | best response; also recorded: significantly increased | – | – | only slightly induced | nanomolar range |
